# In patent US20240002388A1, “PYRIMIDINONE COMPOUNDS AND USES THEREOF” (HUTCHISON MEDIPHARMA LIMITED, priority 2020, published 2024):
# Tested on: IL-1β production in human whole blood
# Experiment: TNF-α, Z-VAD-FMK and SM-164 induced IL-1β production in human whole blood
# Type: cell-based
# Settings: Z-VAD-FMK and SM-164 stimulation, 6 hours, IL-1β ELISA
# Text: • Human blood samples were collected by venipuncture from healthy volunteers, with signed consent from each volunteer before blood collection; • RPMI 1640 medium: L-Glutamine, 1.5 g/L NaHCO3, 2.383 g/L HEPES solution, 0.11 g/L sodium pyruvate and 4.5 g/L Glucose; Gibco, catalog: A10491-01; • Dimethyl sulfoxide (DMSO): Sigma, catalog: D2650; • Recombinant Human TNF-alpha Protein (hTNF-α): R&D system, catalog: 210-TA-100; • Pan-Caspase inhibitor (Z-VAD-FMK): Selleckchem, catalog: S7023; • Smac Mimetic-164 (SM-164): APEXBIO, catalog: A8815; • Human IL-1 beta/IL-1F2 Quantikine ELISA Kit: R&D systems, catalog: SLB50; • Envision Multimode Microplate Reader: PerkinElmer; • 96-well clear flat bottom TC-treated culture microplate: Falcon, catalog: 353072; • 96-well Microplate (U bottom): Corning, catalog: 3799. 2. Assay Protocol Human whole blood was anti-coagulated with heparin and used in human whole blood assay immediately. Fresh heparinized human whole blood was diluted with an equal volume of RPMI 1640 medium, aliquoted the diluted blood into 96-well plate, 90 μL each well.
# Compound preparation: dilute the compound stock using DMSO and perform 3-fold serial dilution to 8-points. Then transfer the diluted compounds to RPMI 1640 medium and mix.
# Compound treatment and stimulation: transfer 5 μL of the diluted compound to appropriate wells of the plate. The final concentration of the compound was 1.0, 0.333, 0.111, 0.037, 0.012, 0.004, 0.0014 and 0.0005 μM, and each well contained 0.3% DMSO. For positive and negative control wells, add 5 μL of RPMI 1640 medium with 3% DMSO. And incubate the plate at 5% CO2, 37° C. for 1 hour.
# Then 5 μL of the mixture of stimuli (TNF-α, Z-VAD-FMK and SM-164) was added with the final concentration of […] except negative control wells. The negative control wells were added same volume of RPMI 1640 medium.
# After incubation 6 hours in a 37° C./5% CO2 incubator, each well was added with 100 μL of PBS, and centrifuged at 4000 rmp for 10 minutes. The 110 μL of supernatant per well was collected, and stored at −80° C. for ELISA.
# Prepared 100 μL of IL-1β standards (in duplicate) in designated wells. ELISA was operated according to manufacturer's instruction. In the end, measured the ELISA plate absorbance at 450 nm/570 nm using Envision.
# Inhibition rates of compounds on TNF-α, Z-VAD-FMK and SM-164 induced IL-1β Production in human whole blood were calculated as follows: • IL-1β level was calculated with IL-1β standard curve (standard curve fitting equation is four parameters logistic model)
# [formula] • IL-1β levelstimulated: the concentration of IL-1β in the positive control wells which added TNF-α, Z-VAD-FMK, SM-164 and no compound; • IL-1β levelnon-stimulated: the concentration of IL-1β in the negative control wells without the treatment of TNF-α, Z-VAD-FMK, SM-164 and compound; • IL-1β levelcompound: the concentration of IL-1β in the wells with the treatment of TNF-α, Z-VAD-FMK, SM-164 and compound. • The IC50 value of compound is determined with XLFit 5 software (ID Business Solutions Limited).
row,Compound,IC50
1,"CC(C)n1cncc(-c2ccc(C3(NC(=O)c4ncc5cnn(C(C)C6CC6)c5n4)CC3)cc2)c1=O (racemic) [Compound 59, 1-(1-cyclopropylethyl)-N-(1-(4-(1-i-propyl-6-oxo-1,6-dihydropyrimidin-5-yl)phenyl)cyclopropyl)-1H-pyrazolo[3,4-d]pyrimidine-6-carboxamide]",4 nM
2,CC(C)n1ncc2cnc(C(=O)NC3(c4ccc(-c5cncn([C@H](C)C(F)(F)F)c5=O)cc4F)CC3)nc21 (stereo in doubt) [Compound 46],6 nM
3,CC(C)n1ncc2cnc(C(=O)NC3(c4ccc(-c5cncn([C@@H](C)C(F)(F)F)c5=O)cc4F)CC3)nc21 (stereo in doubt) [Compound 47],9 nM
4,"CC(C)n1cncc(-c2ccc(C3(NC(=O)c4ncc5cnn(C(C)C)c5n4)CC3)cc2)c1=O [Compound 29, 1-isopropyl-N-(1-(4-(1-isopropyl-6-oxo-1,6-dihydropyrimidin-5-yl)phenyl)cyclopropyl)-1H-pyrazolo[3,4-d]pyrimidine-6-carboxamide]",4 nM
5,CC(C)n1ncc2cnc(C(=O)NC3(c4ccc(-c5cncn(CC6CC6)c5=O)cc4)CC3)nc21 [Compound 36],4 nM
6,CC(C)n1ncc2cnc(C(=O)NC3(c4ccc(-c5cncn(C6COC6)c5=O)cc4)CC3)nc21 [Compound 41],18 nM
7,CC(C)n1cncc(-c2ccc(C3(NC(=O)c4ncc5cnn(C6COC6)c5n4)CC3)cc2)c1=O [Compound 60],10 nM
8,O=C(NC1(c2ccc(-c3cncn(CC4CC4)c3=O)cc2)CC1)c1ncc2cnn(CC3CC3)c2n1 [Compound 64],12 nM
9,CC(C)n1ncc2cnc(C(=O)NC3(c4ccc(-c5cncn(CC6CC6)c5=O)c(F)c4)CC3)nc21 [Compound 75],11 nM
10,"CC(C)n1ncc2cnc(C(=O)NC3(c4ccc(-c5cncn([C@H](C)C6CC6)c5=O)cc4)CC3)nc21 [Compound 84, (R)—N-(1-(4-(1-(1-cyclopropylethyl)-6-oxo-1,6-dihydropyrimidin-5-yl)phenyl)cyclopropyl)-1-i-propyl-1H-pyrazolo[3,4-d]pyrimidine-6-carboxamide]",5 nM
11,"CC(C)n1ncc2cnc(C(=O)NC3(c4ccc(-c5cncn([C@@H](C)C6CC6)c5=O)cc4)CC3)nc21 [Compound 85, (S)—N-(1-(4-(1-(1-cyclopropylethyl)-6-oxo-1,6-dihydropyrimidin-5-yl)phenyl)cyclopropyl)-1-i-propyl-1H-pyrazolo[3,4-d]pyrimidine-6-carboxamide]",5 nM
12,CC(C)n1ncc2cnc(C(=O)NC3(c4ccc(-c5cncn(CC6(C)CC6)c5=O)cc4)CC3)nc21 [Compound 86],13 nM
13,"CC(C)n1cncc(-c2ccc(C3(NC(=O)c4ncc5cnn([C@H](C)C6CC6)c5n4)CC3)cc2)c1=O [Compound 89, (R)-1-(1-cyclopropylethyl)-N-(1-(4-(1-i-propyl-6-oxo-1,6-dihydropyrimidin-5-yl)phenyl)cyclopropyl)-1H-pyrazolo[3,4-d]pyrimidine-6-carboxamide]",18 nM
14,"CC(C)n1cncc(-c2ccc(C3(NC(=O)c4ncc5cnn([C@@H](C)C6CC6)c5n4)CC3)cc2)c1=O [Compound 90, (S)-1-(1-cyclopropylethyl)-N-(1-(4-(1-i-propyl-6-oxo-1,6-dihydropyrimidin-5-yl)phenyl)cyclopropyl)-1H-pyrazolo[3,4-d]pyrimidine-6-carboxamide]",7 nM

# Next, values leading:
row,IC50,Compound
1,11 nM,CC(C)n1cncc(-c2ccc(C3(NC(=O)c4ncc5cnn(CC6CC6)c5n4)CC3)cc2)c1=O [Compound 61]
2,43 nM,C[C@H](n1cncc(-c2ccc(C3(NC(=O)c4ncc5cnn(CC6CC6)c5n4)CC3)cc2)c1=O)C(F)(F)F [Compound 68]
3,8 nM,C[C@@H](n1cncc(-c2ccc(C3(NC(=O)c4ncc5cnn(CC6CC6)c5n4)CC3)cc2)c1=O)C(F)(F)F [Compound 70]
4,38 nM,C[C@H](n1cncc(-c2ccc(C3(NC(=O)c4ncc5cnn(CC6CC6)c5n4)CC3)c(F)c2)c1=O)C(F)(F)F [Compound 71]
5,39 nM,CC(C)n1cncc(-c2ccc(C3(NC(=O)c4ncc5cnn(CC6CC6)c5n4)CC3)c(F)c2)c1=O [Compound 72]
6,21 nM,CC(C)n1cncc(-c2ccc(C3(NC(=O)c4ncc5cnn(CC6CC6)c5n4)CC3)cc2F)c1=O [Compound 73]
7,13 nM,CC(C)n1ncc2cnc(C(=O)NC3(c4ccc(-c5cncn(CC6CC6)c5=O)cc4F)CC3)nc21 [Compound 74]
8,9 nM,C[C@@H](n1cncc(-c2ccc(C3(NC(=O)c4ncc5cnn(CC6CC6)c5n4)CC3)c(F)c2)c1=O)C(F)(F)F [Compound 76]
